13 molecules from ChEMBL document CHEMBL1201862, “PubChem BioAssay data set” (2004) can be followed below.

Among the test systems are NCI-H460; UO-31; HOP-92; RPMI-8226; A498; SF-539; CAKI-1; RXF 393; HCT-15; K562; NCI-H23; M14; OVCAR-3; SK-MEL-2; EKVX; MDA-MB-231; PC-3; T47D.
Test in all cases: NCI tumour cell line growth inhibition, 48 h

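Grown in 96-well plates, cells were treated for 48 hours with each compound at five concentrations. Insufficient inhibition: endpoint recorded as highest concentration tested. GI50 is the concentration that inhibits growth by half.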 Calls of active or inactive are those of the source. No stated cut-off is given here; in the data, active = GI50 up to about 1.1 µM and inactive = higher.

For the molecule `CC1=C(SC#N)S(=O)(=O)N(c2ccccc2)C(C)=C1SC#N`, the GI50 with NCI-H460 is 32.8 µM (inactive); in the test on UO-31, 24.4 µM (inactive); in the test with HOP-92, 3.63 µM (inactive); with RPMI-8226, 28.5 µM (inactive); in the test with A498, 22.6 µM (inactive); in the test with SF-539 it was 43.3 µM (inactive). For the same molecule, the GI50 in the test with CAKI-1 is 45.2 µM (inactive); in the test on RXF 393 it was 21.8 µM (inactive); in the test with HCT-15, 46 µM; in the test with K562, 21 µM (inactive); in the test on NCI-H23, 48.2 µM (inactive); in the test on M14, > 10 µM (inactive). For the same molecule, the results for the GI50 with OVCAR-3 and in the test on SK-MEL-2 were > 10 µM (inactive) and 26.7 µM (inactive), respectively.
Regarding `O=C(Nc1ccc(Sc2ccc(/N=N/c3c(O)c(S(=O)(=O)O)cc4cc(S(=O)(=O)O)ccc34)cc2)cc1)c1ccc(/N=N/c2c(O)ccc3c(S(=O)(=O)O)cc(S(=O)(=O)O)cc23)cc1`, the GI50 in the test with NCI-H460 is 28.1 µM (inactive); with UO-31 it was 41.2 µM (inactive); in the test on EKVX it was 17.3 µM (inactive); in the test on HOP-92, 78 µM (inactive); with RPMI-8226 it was 10.4 µM (inactive); in the test with A498, 26 µM (inactive). Moreover, the GI50 with SF-539 was 46.9 µM (inactive); in the test on CAKI-1 it was 43.8 µM (inactive); with RXF 393, 50.6 µM (inactive); in the test on HCT-15, 27.5 µM; with K562, 10.1 µM (inactive); in the test with NCI-H23, 19 µM (inactive). Moreover, the values for the GI50 in the test with M14, in the test with OVCAR-3 and with SK-MEL-2 were 21.7 µM (inactive), 19.8 µM (inactive) and 27.9 µM (inactive), respectively.
Regarding `CCOC(=O)C1Cc2ccc3c4c(ccc(c24)C1)CC(C(=O)OCC)C3`, the GI50 with UO-31, in the test with EKVX, in the test with HOP-92, in the test with RPMI-8226, with A498 and with SF-539 was > 100 µM (inactive) in each case. Moreover, the GI50 was > 100 µM (inactive) in the test with RXF 393; above 100 µM with HCT-15; > 100 µM (inactive) with K562; > 100 µM (inactive) with NCI-H23; > 100 µM (inactive) with M14; > 100 µM (inactive) in the test with OVCAR-3. For the same molecule, in the test on SK-MEL-2, the GI50 was > 100 µM (inactive).
Regarding `COc1ccc(CNc2cc(OC)c(OC)c(OC)c2)cc1`, the GI50 in the test on NCI-H460 is 3.47 µM (inactive); in the test on UO-31, 10.4 µM (inactive); with EKVX, 14.6 µM (inactive); in the test on HOP-92 it was 7.48 µM (inactive); with RPMI-8226, 4.18 µM (inactive); with A498, 9.08 µM (inactive). Further, the GI50 with SF-539 was 6.21 µM (inactive); in the test with CAKI-1, 4.36 µM (inactive); in the test with RXF 393, 5.89 µM (inactive); with HCT-15, 3.52 µM; with K562 it was 2.18 µM (inactive); in the test with NCI-H23, 6.08 µM (inactive). Further, the GI50 in the test on M14 was 6.82 µM (inactive); with OVCAR-3 it was 3.14 µM (inactive); in the test with SK-MEL-2 it was 2.72 µM (inactive).
For the molecule `CCOC(=O)C1=C(Nc2ccccc2)SC/C1=N\NC(=O)Cc1ccccc1`, the GI50 in the test with NCI-H460, in the test on UO-31, with EKVX, with HOP-92, in the test with A498 and in the test with SF-539 was > 100 µM (inactive) throughout. The GI50 was > 100 µM (inactive) with CAKI-1; > 100 µM (inactive) in the test with RXF 393; above 100 µM with HCT-15; > 100 µM (inactive) in the test on K562; > 100 µM (inactive) in the test on NCI-H23; > 100 µM (inactive) with M14. Also, the GI50 in the test with OVCAR-3 and with SK-MEL-2 was > 100 µM (inactive) each time.
For the molecule `COc1ccc(/C=N/N=C(\N)NO)c(OC)c1C`, the GI50 is 15.6 µM (inactive) in the test with NCI-H460; 10.2 µM (inactive) in the test with UO-31; 4.56 µM (inactive) in the test on EKVX; 19.8 µM (inactive) in the test with HOP-92; 23.7 µM (inactive) in the test on RPMI-8226; 25.4 µM (inactive) with A498. The GI50 in the test on SF-539 is 19.2 µM (inactive); in the test on CAKI-1 it was 8.49 µM (inactive); with RXF 393, 12.2 µM (inactive); with HCT-15, 9.14 µM; in the test on K562, 10.1 µM (inactive); in the test on NCI-H23, 19.5 µM (inactive). In addition, the GI50 in the test on OVCAR-3 is 7.96 µM (inactive); in the test on SK-MEL-2, 22.3 µM (inactive).
As to `COc1cc2c(cc1OC)C1(c3ccccc3)ON=C(c3ccccc3)N1CS2` (configuration not stated), the GI50 in the test with NCI-H460 is > 100 µM (inactive); in the test with UO-31, > 100 µM (inactive); with EKVX, > 100 µM (inactive); in the test with HOP-92, 39.4 µM (inactive); in the test on RPMI-8226, 67.6 µM (inactive); in the test with A498, > 100 µM (inactive). Moreover, the GI50 in the test on SF-539 was > 100 µM (inactive); with CAKI-1, > 100 µM (inactive); with RXF 393, 63 µM (inactive); with HCT-15, above 100 µM; in the test with K562, 52.7 µM (inactive); in the test with NCI-H23, > 100 µM (inactive). Also, the values for the GI50 in the test with M14, in the test with OVCAR-3 and in the test on SK-MEL-2 were 46 µM (inactive), > 100 µM (inactive) and > 100 µM (inactive), respectively.
Consider `COc1cc2c(c(OC)c1OC)-c1ccc(SC)c(=O)cc1[C@@H](NCc1cccc(C#N)c1)CC2`, for which the GI50 is 0.0268 µM (active) in the test on NCI-H460; 0.308 µM (active) in the test with UO-31; 0.0973 µM (active) in the test on EKVX; 0.0401 µM (active) in the test with HOP-92; 0.0345 µM (active) in the test on RPMI-8226; 0.0161 µM (active) in the test with A498. For the same molecule, the GI50 in the test with SF-539 is 0.014 µM (active); with CAKI-1, 0.0075 µM (active); in the test on RXF 393 it was 0.00408 µM (active); with HCT-15, 0.0239 µM; in the test on K562, 0.0361 µM (active); with NCI-H23, 0.0179 µM (active). Moreover, the GI50 in the test on M14 was 0.0188 µM (active); in the test with OVCAR-3, 0.0168 µM (active); in the test with SK-MEL-2, 0.0304 µM (active).
On to `CCCCCCCCCCCCC(CC)CCCCC(=O)O` (configuration not stated), for which the GI50 is > 62.4 µM (inactive) with NCI-H460; > 100 µM (inactive) with UO-31; > 56.2 µM (inactive) with EKVX; > 73.3 µM (inactive) in the test with HOP-92; > 56.4 µM (inactive) in the test on RPMI-8226; > 100 µM (inactive) with A498. Moreover, the GI50 in the test on SF-539 is > 44.6 µM (inactive); in the test with CAKI-1, > 100 µM (inactive); in the test with RXF 393 it was > 60 µM (inactive); with HCT-15, above 100 µM; with K562, 40.6 µM (inactive); in the test on NCI-H23, > 78.7 µM (inactive). In addition, the GI50 in the test with M14, with OVCAR-3 and with SK-MEL-2 was > 100 µM (inactive) in each case.
On to `COc1ccc(CN(O)C2C(CO)OC(n3cc(I)c(=O)[nH]c3=O)C2O)cc1` (configuration not stated), for which the GI50 with NCI-H460, in the test with UO-31, with EKVX, with HOP-92, in the test on RPMI-8226 and with A498 was > 100 µM (inactive) throughout. The GI50 is > 100 µM (inactive) in the test with SF-539; > 100 µM (inactive) in the test with CAKI-1; > 100 µM (inactive) in the test with RXF 393; above 100 µM in the test on HCT-15; > 100 µM (inactive) with K562; > 100 µM (inactive) with NCI-H23. Further, the GI50 in the test on M14, in the test with OVCAR-3 and with SK-MEL-2 was > 100 µM (inactive) throughout.
As to `COc1ccc(C(=C[N+](=O)[O-])c2ccc(OC)cc2)cc1`, the GI50 with NCI-H460 was 10.7 µM (inactive); in the test on UO-31, 17.7 µM (inactive); in the test on EKVX, 42.3 µM (inactive); in the test with HOP-92, 25.4 µM (inactive); in the test with RPMI-8226, 3.84 µM (inactive); in the test with A498, 8.2 µM (inactive). Further, the GI50 in the test on SF-539 is 10.9 µM (inactive); in the test with CAKI-1 it was 11.6 µM (inactive); in the test on RXF 393, 12.3 µM (inactive); with HCT-15 it was 8.05 µM; in the test with K562, 3.69 µM (inactive); with NCI-H23, 12.7 µM (inactive). Also, the GI50 in the test with M14 is 11.9 µM (inactive); in the test with OVCAR-3, 14.1 µM (inactive); with SK-MEL-2 it was 6.14 µM (inactive).
Take `Nc1ncnc2c1nnn2C1CCC(CP(=O)(O)O)C1` (configuration not stated): the GI50 in the test with NCI-H460, in the test on UO-31, in the test on EKVX, with MDA-MB-231, in the test with HOP-92 and in the test on RPMI-8226 was > 100 µM (inactive) in each case. Moreover, the GI50 in the test on SF-539 was > 100 µM (inactive); in the test on PC-3, > 100 µM (inactive); with CAKI-1, > 100 µM (inactive); in the test on RXF 393 it was > 100 µM (inactive); in the test on HCT-15, above 100 µM; with T47D, > 100 µM (inactive). Also, the GI50 in the test with K562, in the test on NCI-H23, in the test with M14, in the test with OVCAR-3 and in the test with SK-MEL-2 was > 100 µM (inactive) throughout.
In the case of `COc1ccc2c(=O)c([Se]c3coc4cc(OC)ccc4c3=O)coc2c1`, the GI50 was 18.7 µM (inactive) in the test with NCI-H460; 57.4 µM (inactive) in the test with UO-31; 46.8 µM (inactive) in the test on EKVX; > 100 µM (inactive) in the test on HOP-92; > 100 µM (inactive) with RPMI-8226; 57.3 µM (inactive) with A498. For the same molecule, the GI50 with SF-539 was 69 µM (inactive); in the test with CAKI-1 it was > 100 µM (inactive); in the test on RXF 393, 48.6 µM (inactive); in the test on HCT-15 it was 50.9 µM; with K562 it was > 100 µM (inactive); with NCI-H23, 34.9 µM (inactive). For the same molecule, the GI50 with M14 is 18.3 µM (inactive); in the test on OVCAR-3, > 100 µM (inactive); with SK-MEL-2, > 100 µM (inactive).
